Consider one molecule from patent US12036222B2, “Methods of treating cancers overexpressing CARM1 with EZH2 inhibitors and a PARP inhibitor” (The Wistar Institut of Anatomy and Biology, priority 2018, dated 2024).

SMILES strings stand for the structures. “Also recorded” adds a separate entry of the source. Bounds are passed on as bounds.

Test [1] has as its system CARM1-low EOC cells such as CAOV3 and PEO1. Description: Colony formation assay in CARM1-low EOC cells. The class given is cell-based, human. As to conditions: 10 μM GSK126. As to the method: FIG. 33 illustrates relative growth of the indicated HOSE, FTE, and EOC cancer cell lines with high or low CARM1 expression treated with 10 μM GSK126 or vehicle in a colony formation assay as determined by NIH Image J quantification.
500 to 5,000 cell were plated into a 24 well tissue culture plate and treated with the indicated compounds. Medium was changed every three days with appropriate drug doses for 12 days or until control wells became confluent. Colonies were washed twice with PBS and fixed with 10% methanol and 10% acetic acid in distilled water. Fixed colonies were stained with 0.005% crystal violet. Integrated density was measured using NIH ImageJ software.

Test [2] deals with A1847 parental and CARM1 knockout cells. Description: Epigenetic targeting small molecule set screen (14-day colony formation). The note with it: 14 days, normalized to vehicle. Format: cell-based, human. On the procedure: FIG. 26 illustrates that CARM1-expressing cells are selectively sensitized to EZH2 inhibitors. Equal number of parental control or CARM1 knockout […] cells were plated and treated with each of the 23 individual epigenetic inhibitors for 14 days. The media with the inhibitors was refreshed every 3 days. Cell growth was quantified as integrated density using NIH Image J software. Quantification of the average integrated density graphed as a scatter plot. The X-axis indicates the relative growth of treated CARM1 high parental […] cells compared with DMSO vehicle controls. Y-axis indicates the relative growth of treated CARM1 knockout […] cells compared with DMSO vehicle controls. n=4; and error bars represents SEM. FIG. 27 illustrates a table of EZH2 inhibitors that are selective against CARM1 expression. CARM1-high parental controls and CARM1 knockout […] cells were treated with the indicated concentration of the small molecules in a 14-day colony formation assay. Integrated density for each well was calculated using NIH Image J software. The relative growth of the indicated cells was determined by normalizing to the vehicle control treated cells. n=4 and p-value was calculated using a two-tailed t-test. […] parental and CARM1 knockout cells were plated in 24-well plates and treated with 24 epigenetic compounds. Cell medium was changed every three days with appropriate drug doses for 14 days or until control wells became confluent. Colonies were washed twice with PBS and fixed with 10% methanol and 10% acetic acid in distilled water. Fixed colonies were stained with 0.005% crystal violet. Integrated density was measured using NIH ImageJ software as a surrogate for cell growth.

The target of the next test is T1, EZH2 (Homo sapiens, UniProt Q15910).
T1 construct: endogenous in cells; host or cells: A1847 cells (CARM1-high epithelial ovarian cancer line)
Description: Immunoblot of A1847 cells treated with GSK126 (H3K27Me3 as readout of EZH2 activity). Format: cell-based. On the set-up: inhibition of the enzymatic activity of EZH2 as indicated by the decrease in H3K27Me3 levels: dose or concentration left out as unconfirmed. As to conditions: 72 hours. As to the method:
FIG. 32 illustrates that the EZH2 inhibitor GSK126 decreases H3K27Me3 levels in a dose-dependent manner. A1847 cells were treated with the indicated concentrations of GSK126 for 72 hours and examined for expression of the indicated proteins by immunoblot. Expression of histone H3 and 3-actin was used as a loading control.
In general terms: Immunoblotting shows a protein as a band on a membrane.

Test [3] deals with parental and CARM1 knockout A1847 cells, CARM1 high OVCAR10 cells. Description: Apoptosis markers (Annexin V, cleaved caspase 3, cleaved PARP). The note with it: 10 μM GSK126, 7 days; CARM1-dependent manner. Format: cell-based, human. On the procedure: FIG. 37 illustrates control parental and CARM1 knockout A1847 cells were treated with 10 μM GSK126 or vehicle for 7 days. Percentage of Annexin V positive apoptotic cells was quantified. *p<0.001 and #p>0.05.
FIG. 38 illustrates levels of cleaved caspase 3 and cleaved PARP in control parental and CARM1 knockout A1847 cells treated with 10 μM GSK126 for 7 days. Expression of 3-actin was used as a loading control.
FIG. 39A illustrates the expression of apoptosis markers cleaved in CARM1 high OVCAR10 cells as a result of treatment with GSK126. CARM1 high OVCAR10 cells were treated with 10 μM GSK126 or vehicle control for 7 days. The expression of apoptosis markers cleaved caspase 3 and cleaved PARP were determined by immunoblot. Expression of β-actin was used as a loading control.
Phosphatidylserine externalization was detected using an Annexin V staining kit (Millipore) following the manufacturer's instructions. Annexin V-positive cells were detected using the Guava System and analyzed with the Guava Nexin software Module (Millipore).

Test [4] relates to tumors formed by CARM1 knockout A1847 cells. Description: Subcutaneous xenograft model, CARM1 knockout A1847 cells. The class given is in vivo, NSG mice. The note with it: 50 mg/kg daily i.p. As to the method: The protocols were approved by the Institutional Animal Care and Use Committee (IACUC). 5×10^6 control A1847 or A1847 CARM1 knockout cells were unilaterally injected subcutaneously into 6-8-week old female immunocompromised NSG mice (n=5 per group). One week after injection the mice were randomized and treated with vehicle control (20% captisol) or GSK126 (50 mg/kg daily). Tumor size was measured every 3 days for 3 weeks. At end of the experiments, tumors were surgically dissected and tumor burden was calculated based on tumor weight.
EZH2 inhibitors, such as GSK126, are used safely in clinical trials for hematopoietic malignancies (Ribrag et al. Eur J Cancer (2014) 50:197). To determine the effects of EZH2 inhibition in vivo on the growth of CARM1-expressing ovarian tumors, two xenograft models were utilized. In the subcutaneous xenograft models, the injected CARM1-expressing A1847 cells were first allowed to grow for one week to establish the tumors. Mice were then randomized and treated daily with vehicle control or GSK126 (50 mg/kg) by intraperitioneal (i.p.) injection as reported (see, e.g., Bitler et al. Nature Medicine (2015) 21:231-8 and McCabe et al. Nature (2012) 492:108-12). […] To more closely mimic the tumor microenvironment, A1847 cells were orthotopically transplanted into the bursa covering the ovary of immunocompromised NSG mice. […]

Another test concerns CARM1-depleted cells. Description: Sensitization to Olaparib in CARM1-depleted cells. The note with it: data not shown. The class given is cell-based. An excerpt:
Therefore, CARM1-expressing EOC can be treated and ultimately eradicated by combinatory targeting EZH2 and PARP using clinically applicable small molecule inhibitors.

T1 sequence (Q15910 whole entry): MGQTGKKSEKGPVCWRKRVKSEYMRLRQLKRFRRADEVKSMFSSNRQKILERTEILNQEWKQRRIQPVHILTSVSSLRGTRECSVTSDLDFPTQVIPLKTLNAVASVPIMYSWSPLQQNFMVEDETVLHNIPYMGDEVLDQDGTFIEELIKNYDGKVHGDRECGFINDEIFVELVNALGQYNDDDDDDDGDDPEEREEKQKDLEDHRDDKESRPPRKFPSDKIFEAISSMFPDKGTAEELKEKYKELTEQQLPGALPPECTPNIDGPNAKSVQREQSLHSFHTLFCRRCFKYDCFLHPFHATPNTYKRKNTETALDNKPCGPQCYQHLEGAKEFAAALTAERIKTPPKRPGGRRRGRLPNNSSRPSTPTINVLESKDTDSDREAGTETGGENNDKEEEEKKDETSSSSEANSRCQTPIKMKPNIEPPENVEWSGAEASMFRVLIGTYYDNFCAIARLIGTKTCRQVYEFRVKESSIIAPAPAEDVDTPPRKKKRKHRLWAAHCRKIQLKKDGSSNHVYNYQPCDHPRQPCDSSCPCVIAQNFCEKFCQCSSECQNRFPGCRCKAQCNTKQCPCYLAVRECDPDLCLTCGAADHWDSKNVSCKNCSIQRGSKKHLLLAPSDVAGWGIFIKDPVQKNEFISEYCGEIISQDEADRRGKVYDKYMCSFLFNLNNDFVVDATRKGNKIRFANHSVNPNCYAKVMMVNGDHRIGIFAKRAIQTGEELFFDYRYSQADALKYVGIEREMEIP
T1 sequence (Q15022 whole entry partner): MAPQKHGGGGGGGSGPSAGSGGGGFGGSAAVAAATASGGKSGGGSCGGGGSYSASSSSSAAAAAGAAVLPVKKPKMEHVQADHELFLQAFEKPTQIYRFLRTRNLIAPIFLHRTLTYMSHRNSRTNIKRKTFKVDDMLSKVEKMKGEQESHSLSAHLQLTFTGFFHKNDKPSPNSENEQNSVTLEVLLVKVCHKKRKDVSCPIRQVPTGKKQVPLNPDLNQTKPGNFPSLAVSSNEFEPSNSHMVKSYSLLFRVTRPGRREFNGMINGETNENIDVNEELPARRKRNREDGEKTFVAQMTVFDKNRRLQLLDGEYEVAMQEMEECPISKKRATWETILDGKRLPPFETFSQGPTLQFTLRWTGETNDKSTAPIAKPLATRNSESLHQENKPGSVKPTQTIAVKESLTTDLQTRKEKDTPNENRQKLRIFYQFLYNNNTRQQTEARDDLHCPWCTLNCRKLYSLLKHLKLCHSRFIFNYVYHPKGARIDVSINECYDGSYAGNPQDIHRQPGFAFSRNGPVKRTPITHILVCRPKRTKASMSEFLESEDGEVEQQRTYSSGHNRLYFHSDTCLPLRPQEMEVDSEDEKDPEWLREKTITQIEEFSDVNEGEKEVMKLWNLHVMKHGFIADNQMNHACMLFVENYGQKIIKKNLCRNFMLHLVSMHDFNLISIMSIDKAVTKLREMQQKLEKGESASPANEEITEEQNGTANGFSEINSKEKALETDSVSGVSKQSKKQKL
T1 sequence (O75530 whole entry partner): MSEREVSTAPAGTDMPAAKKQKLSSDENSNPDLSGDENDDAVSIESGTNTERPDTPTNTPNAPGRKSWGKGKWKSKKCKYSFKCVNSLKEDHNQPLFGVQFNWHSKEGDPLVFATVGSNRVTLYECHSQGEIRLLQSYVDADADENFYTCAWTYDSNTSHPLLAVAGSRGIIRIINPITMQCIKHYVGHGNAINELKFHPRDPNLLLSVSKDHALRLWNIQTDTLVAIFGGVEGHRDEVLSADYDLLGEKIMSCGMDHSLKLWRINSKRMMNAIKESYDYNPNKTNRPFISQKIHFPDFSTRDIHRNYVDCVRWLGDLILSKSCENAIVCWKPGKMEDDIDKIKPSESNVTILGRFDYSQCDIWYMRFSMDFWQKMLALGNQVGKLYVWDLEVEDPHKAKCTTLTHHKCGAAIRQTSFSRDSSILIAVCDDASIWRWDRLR

As to `CC[C@H](C)n1cc(C)c2c(C(=O)NCc3c(C)cc(C)[nH]c3=O)cc(-c3ccc(N4CCNCC4)nc3)cc21` [GSK126, (S)-1-(sec-butyl)-N-((4,6-dimethyl-2-oxo-1,2-dihydropyridin-3-yl)methyl)-3-methyl-6-(6-(piperazin-1-yl)pyridin-3-yl)-1H-indole-4-carboxamide], the “response of CARM1-low EOC cells” value in test [1] is recorded as “did not respond”. Also, in test [2], the “selective growth suppression of CARM1-expressing vs CARM1 KO cells” value is given as “showed selectivity against CARM1-expressing cells; also recorded: selectively sensitive”. Besides, on EZH2, the EZH2 protein levels entry is listed as “did not affect EZH2 protein levels”, the “expression of CARM1” value is recorded as “did not affect the expression of CARM1” and the “inhibition of the enzymatic activity of EZH2 as indicated by the decrease in H3K27Me3 levels” value is > 95%. In addition, the H3K27Me3 levels entry at EZH2 (indicated concentrations) is “dose-dependent decrease in H3K27Me3 levels”. Besides, in test [3], the markers of apoptosis result was “induced”. Moreover, the “growth of tumors formed by CARM1 knockout A1847 cells” value in test [4] was “failed to inhibit the growth”. The “sensitization to Olaparib” value in the test with CARM1-depleted cells is recorded as “did not promote sensitization to Olaparib”.
